{"source": "patent US20100035753A1", "about": "“Fungicidal Mixtures Comprising Substituted 1-methylpyrazol-4-ylcarboxanilides” (BASF SE, priority 2007, published 2010)", "key": {"Phytophthora infestans [1]": {"system": "Phytophthora infestans", "assay_type": "cell-based"}, "Botrytis cinerea [2]": {"system": "Botrytis cinerea", "experiment": "Use Example 2: preventative control of grey mold on leaves of green pepper", "assay_type": "in vivo", "settings": "4 ppm", "experimental": "(§1) The active compounds, separately or jointly, were prepared as a stock solution comprising 25 mg of active compound which was made up to 10 ml using a mixture of acetone and/or DMSO and the emulsifier Uniperol® EL (wetting agent having an emulsifying and dispersing action based on ethoxylated alkylphenols) in a ratio by volume of solvent/emulsifier of 99:1. The mixture was then made up to 100 ml with water. This stock solution was diluted with the solvent/emulsifier/water mixture described to give the concentration of active compound stated below.\n(§2) The visually determined percentages of infected leaf areas were converted into efficacies in % of the untreated control:\n(§3) The efficacy (E) is calculated as follows using Abbot's formula: […]\n(§4) α corresponds to the fungicidal infection of the treated plants in % and\n(§5) β corresponds to the fungicidal infection of the untreated (control) plants in % […]\n(§6) The expected efficacies of active compound combinations were determined using Colby's formula (Colby, S. R. “Calculating synergistic and antagonistic responses of herbicide combinations”, Weeds, 15, pp. 20-22, 1967) and compared with the observed efficacies. […]\nYoung seedlings of green pepper were grown in pots to the 2 to 3 leaf stage. […] After 5 days at 22 to 24° C. and a relative humidity close to 100% the extent of fungal attack on the leaves was visually assessed as % diseased leaf area."}, "Phytophthora infestans [3]": {"system": "Phytophthora infestans", "assay_type": "in vivo"}, "Puccinia recondita [4]": {"system": "Puccinia recondita", "experiment": "Use Example 5: curative control of brown rust on wheat", "assay_type": "in vivo", "experimental": "as §1, §2, §3, §4\n(§7) β corresponds to the fungicidal infection of the untreated (control) plants in %\n(§8) An efficacy of 0 means that the infection level of the treated plants corresponds to that of the untreated control plants; an efficacy of 100 means that the treated plants were not infected.\n(§9) The expected efficacies of active compound combinations were determined using Colby's formula (Colby, S. R. “Calculating synergistic and antagonistic responses of herbicide combinations”, Weeds, 15, pp. 20-22, 1967) and compared with the observed efficacies.\n(§10) Colby's formula: E=x+y−x·y/100 • E expected efficacy, expressed in % of the untreated control, when using the mixture of the active compounds A and B at the concentrations a and b • x efficacy, expressed in % of the untreated control, when using the active compound A at the concentration a • y efficacy, expressed in % of the untreated control, when using the active compound B at the concentration b\nThe first two developed leaves of pot-grown wheat seedling were dusted with spores of Puccinia recondita. To ensure the success the artificial inoculation, the plants were transferred to a humid chamber without light and a relative humidity of 95 to 99% and 20 to 22° C. for 24 h. The next day the plants were sprayed to run-off with an aqueous suspension, containing the concentration of active ingredient or their mixture as described below. The plants were allowed to air-dry. Then the trial plants were cultivated for 8 days in a greenhouse chamber at 22-26° C. and a relative humidity between 65 and 70%. The extent of fungal attack on the leaves was visually assessed as % diseased leaf area."}, "Phakopsora pachyrhizi": {"system": "Phakopsora pachyrhizi", "experiment": "Use Example 8: curative control of soy bean rust on soy beans", "assay_type": "in vivo", "settings": "0.25 ppm", "experimental": "as §1, §2, §3, §4, §5, §6\nLeaves of pot-grown soy bean seedlings were inoculated with spores of Phakopsora pachyrhizi. […] The extent of fungal attack on the leaves was visually assessed as % diseased leaf area."}, "Septoria tritici [5]": {"system": "Septoria tritici"}, "Pyricularia oryzae [6]": {"system": "Pyricularia oryzae", "assay_type": "cell-based"}, "Septoria tritici [7]": {"system": "Septoria tritici", "experiment": "Use Example 13: control of Septoria tritici", "assay_type": "cell-based"}, "Alternaria solani": {"system": "Alternaria solani", "experiment": "Use Example 1: preventative fungicidal control of early blight on tomatoes", "assay_type": "in vivo", "settings": "0.25 ppm", "experimental": "as §1, §2, §3, §4, §7, §8, §9, §10\nYoung seedlings of tomato plants were grown in pots. […] After 5 days at 20 to 22° C. and a relative humidity close to 100%, the extent of fungal attack on the leaves was visually assessed as % diseased leaf area."}, "Puccinia recondita [8]": {"system": "Puccinia recondita", "experiment": "Use Example 6: preventative control of brown rust on wheat", "assay_type": "in vivo", "settings": "0.25 ppm", "experimental": "as §1, §2, §3\nα corresponds to the fungicidal infection of the treated plants in % and […]\nas §6\nThe first two developed leaves of pot-grown wheat seedling were sprayed to run-off with an aqueous suspension, containing the concentration of active ingredient or their as described below. […] The extent of fungal attack on the leaves was visually assessed as % diseased leaf area."}, "Phytophthora infestans [9]": {"system": "Phytophthora infestans", "assay_type": "cell-based", "remark": "listed apart in the source"}, "Pyricularia oryzae [10]": {"system": "Pyricularia oryzae", "assay_type": "cell-based", "settings": "0.25 ppm"}, "Botrytis cinerea [11]": {"system": "Botrytis cinerea", "experiment": "Use Example 9.2: activity against grey mold in the microtiterplate test", "assay_type": "cell-based"}, "Pyrenophora teres": {"system": "Pyrenophora teres", "experiment": "Use Example 7: control of net blotch on barley", "assay_type": "in vivo, Pyrenophora (syn. Drechslera) teres", "experimental": "as §1, §2, §3, §6\nThe first fully developed leaves of pot grown barley plants were sprayed to run-off with an aqueous suspension, containing the concentration of active ingredient or their mentioned in the table below. […] After 6 days of cultivation at 20-24° C. and a relative humidity close to 70%, the extent of fungal attack on the leaves was visually assessed as % leaf area."}, "[12]": {"system": "Blumeria graminis f. sp. tritici", "experiment": "Use Example 4: control of powdery mildew on wheat", "assay_type": "in vivo", "settings": "0.25 ppm", "experimental": "as §1, §2, §3, §6\nThe first fully developed leaves of pot grown wheat were sprayed to run-off with an aqueous suspension, containing the concentration of active ingredient or their mixture mentioned in the table below. […] After cultivation in the greenhouse for 7 days at 22-26° C. and a relative humidity between 60 to 90% the extent of fungal attack on the leaves was visually assessed as % diseased leaf area."}, "[13]": {"system": "Ramularia collo-cygni/Physiological leaf spots", "experiment": "Control of phytopathogenic fungi in barley (statement in the description)", "assay_type": "in vivo", "settings": "solo or in combination with an active compound II"}}, "note": "Like-named read-outs stand apart in the source and are kept apart here."}
{"smiles": "C[N+]1(C)CCCCC1", "note": "[Mepiquat-chloride]", "values": [{"measurement": "Observed activity (% infection)", "setting": "Phytophthora infestans [1]; 63 ppm", "value": 14, "unit": "%"}]}
{"smiles": "Cc1nn(C)c(F)c1C(=O)Nc1ccccc1C(C)CC(C)C", "note": "(centres unmarked) [N-(2-(1,3-dimethylbutyl)-phenyl)-1,3-dimethyl-5-fluoro-1H-pyrazole-4-carboxylic acid amide]", "values": [{"measurement": "Observed efficacy (% of untreated control)", "setting": "Botrytis cinerea [2]", "value": 0, "unit": "%"}, {"measurement": "Observed activity (% infection)", "setting": "Phytophthora infestans [3]; 1 ppm", "value": 0, "unit": "%"}, {"measurement": "Observed activity (% infection)", "setting": "Phytophthora infestans [3]; 4 ppm", "value": 0, "unit": "%"}, {"measurement": "Observed efficacy (% of untreated control)", "setting": "Puccinia recondita [4]; 0.25 ppm", "value": 0, "unit": "%"}, {"measurement": "Observed efficacy (% of untreated control)", "setting": "Puccinia recondita [4]; 1 ppm", "value": 0, "unit": "%"}, {"measurement": "Observed efficacy (% of untreated control)", "setting": "Phakopsora pachyrhizi", "value": 60, "unit": "%"}, {"measurement": "Observed activity", "setting": "Septoria tritici [5]; 0.004 ppm", "value": 1, "unit": "%"}]}
{"smiles": "CCC(=O)C1=C([O-])CC(C(=O)[O-])CC1=O.[Ca+2]", "note": "(centres unmarked) [prohexadione-Ca]", "values": [{"measurement": "Observed activity (%)", "setting": "Pyricularia oryzae [6]; 0.25 ppm", "value": 0, "unit": "%"}, {"measurement": "Observed fungicidal efficacy (%)", "setting": "Septoria tritici [7]; 0.25 ppm", "value": 0, "unit": "%"}]}
{"smiles": "CCOC(=O)C1CC(=O)C(=C(O)C2CC2)C(=O)C1", "note": "(centres unmarked) [Trinexapac-ethyl]", "values": [{"measurement": "Observed activity (% infection)", "setting": "Phytophthora infestans [1]; 63 ppm", "value": 39, "unit": "%"}]}
{"smiles": "Clc1ccc(C2(Cn3cncn3)OCCO2)c(Cl)c1", "note": "[azaconazole]", "values": [{"measurement": "Observed fungicidal efficacy (% of untreated control)", "setting": "Alternaria solani", "value": 0, "unit": "%"}, {"measurement": "Observed efficacy (% of untreated control)", "setting": "Botrytis cinerea [2]", "value": 0, "unit": "%"}, {"measurement": "Observed activity (% infection)", "setting": "Phytophthora infestans [3]; 4 ppm", "value": 0, "unit": "%"}, {"measurement": "Observed efficacy (% of untreated control)", "setting": "Puccinia recondita [4]; 0.25 ppm", "value": 0, "unit": "%"}, {"measurement": "Observed efficacy (% of untreated control)", "setting": "Puccinia recondita [8]", "value": 0, "unit": "%"}, {"measurement": "Observed activity", "setting": "Septoria tritici [5]; 0.016 ppm", "value": 19, "unit": "%"}]}
{"smiles": "COC(=O)[C@@H](C)N(C(=O)Cc1ccccc1)c1c(C)cccc1C", "note": "[Benalaxyl-M, benalaxyl-M, reference compound]", "values": [{"measurement": "Observed activity (% infection)", "setting": "Phytophthora infestans [9]; 16 ppm", "value": 18, "unit": "%"}, {"measurement": "Observed activity (%)", "setting": "Pyricularia oryzae [10]", "value": 0, "unit": "%"}]}
{"smiles": "Clc1cccc(C(Cl)(Cl)Cl)n1", "note": "[nitrapyrin]", "values": [{"measurement": "Observed activity (%)", "setting": "Botrytis cinerea [11]; 0.016 ppm", "value": 10, "unit": "%"}]}
{"smiles": "O=C(NCCc1ncc(C(F)(F)F)cc1Cl)c1ccccc1C(F)(F)F", "note": "[fluopyram]", "values": [{"measurement": "Observed activity (%)", "setting": "Botrytis cinerea [11]; 0.004 ppm", "value": 4, "unit": "%"}]}
{"smiles": "CCN(C)C=Nc1cc(C)c(Oc2ccc(Cl)c(C(F)(F)F)c2)cc1C", "note": "[N′-(4-(4-chloro-3-trifluoromethyl-phenoxy)-2,5-dimethyl-phenyl)-N-ethyl-N-methyl formamidine]", "values": [{"measurement": "Observed fungicidal efficacy (% of untreated control)", "setting": "Alternaria solani", "value": 22, "unit": "%"}, {"measurement": "Observed activity (% infection)", "setting": "Phytophthora infestans [3]; 1 ppm", "value": 0, "unit": "%"}, {"measurement": "Observed efficacy (% of untreated control)", "setting": "Pyrenophora teres; 0.25 ppm", "value": 25, "unit": "%"}, {"measurement": "Observed activity (% infection)", "setting": "Phytophthora infestans [9]; 4 ppm", "value": 33, "unit": "%"}]}
{"smiles": "CCN(C)C=Nc1cc(C)c(Oc2ccc(F)c(C(F)(F)F)c2)cc1C", "note": "[N′-(4-(4-fluoro-3-trifluoromethyl-phenoxy)-2,5-dimethyl-phenyl)-N-ethyl-N-methyl formamidine]", "values": [{"measurement": "Observed fungicidal efficacy (% of untreated control)", "setting": "Alternaria solani", "value": 0, "unit": "%"}, {"measurement": "Observed activity (% infection)", "setting": "Phytophthora infestans [3]; 16 ppm", "value": 0, "unit": "%"}, {"measurement": "Observed efficacy (% of untreated control)", "setting": "[12]", "value": 38, "unit": "%"}, {"measurement": "Observed efficacy (% of untreated control)", "setting": "Puccinia recondita [4]; 0.25 ppm", "value": 67, "unit": "%"}, {"measurement": "Observed efficacy (% of untreated control)", "setting": "Pyrenophora teres; 1 ppm", "value": 13, "unit": "%"}]}
{"smiles": "CC1CCCCN1CCCOC(=O)c1ccc(Cl)c(Cl)c1", "note": "(centres unmarked) [piperalin]", "values": [{"measurement": "Observed activity (%)", "setting": "Botrytis cinerea [11]; 0.016 ppm", "value": 12, "unit": "%"}]}
{"smiles": "Cn1cc(C(=O)Nc2ccc(F)cc2-c2ccc(Cl)c(Cl)c2)c(C(F)F)n1", "note": "[N-(3′,4′-dichloro-5-fluorobiphenyl-2-yl)-1-methyl-3-difluoromethyl-1H-pyrazole-4-carboxamide]", "values": [{"measurement": "activity against Ramularia collo-cygni/Physiological leaf spots", "setting": "[13]", "value": "excellent activity"}]}
{"smiles": "CCC(=O)C1=C([O-])CC(C(=O)[O-])CC1=O.[Ca+2]", "note": "(centres unmarked) [Prohexadione-Ca]", "values": [{"measurement": "Observed activity (% infection)", "setting": "Phytophthora infestans [1]; 16 ppm", "value": 17, "unit": "%"}]}
{"smiles": "CCOC(=O)C1CC(=O)C(=C(O)C2CC2)C(=O)C1", "note": "(centres unmarked) [trinexapac-ethyl]", "values": [{"measurement": "Observed activity (%)", "setting": "Pyricularia oryzae [6]; 4 ppm", "value": 2, "unit": "%"}, {"measurement": "Observed fungicidal efficacy (%)", "setting": "Septoria tritici [7]; 4 ppm", "value": 2, "unit": "%"}]}
